According to PMC9133015 (Nature Communications, 2022):
Values joined by “and” are separate entries in the source; they are usually repeats but may differ in a detail not shown here. Equal values may be shown once.

Assays:
DU145 cells [1] = assay: Anti-proliferation activity assay (CCK8, 72 h); format: cell-based, human; conditions: for Relative proliferation rate (%) mean / Relative proliferation rate (%) / optical density: DU145; for Relative proliferation rate (%) / optical density: replicates
PC-3 cells = assay: Anti-proliferation activity assay (CCK8, 72 h); format: cell-based, human; conditions: for Relative proliferation rate (%) mean / Relative proliferation rate (%) / optical density: PC-3; for Relative proliferation rate (%) / optical density: replicates
DYRK2 = target: T1, DYRK2 (Homo sapiens, UniProt Q92630); assay: DYRKs kinase activity assay (33P-ATP, DYRKtide substrate): DYRK2; format: biochemical
T1 construct: purchased Reaction Biology Corporation (assay service)
T1 sequence (Q92630 1-601): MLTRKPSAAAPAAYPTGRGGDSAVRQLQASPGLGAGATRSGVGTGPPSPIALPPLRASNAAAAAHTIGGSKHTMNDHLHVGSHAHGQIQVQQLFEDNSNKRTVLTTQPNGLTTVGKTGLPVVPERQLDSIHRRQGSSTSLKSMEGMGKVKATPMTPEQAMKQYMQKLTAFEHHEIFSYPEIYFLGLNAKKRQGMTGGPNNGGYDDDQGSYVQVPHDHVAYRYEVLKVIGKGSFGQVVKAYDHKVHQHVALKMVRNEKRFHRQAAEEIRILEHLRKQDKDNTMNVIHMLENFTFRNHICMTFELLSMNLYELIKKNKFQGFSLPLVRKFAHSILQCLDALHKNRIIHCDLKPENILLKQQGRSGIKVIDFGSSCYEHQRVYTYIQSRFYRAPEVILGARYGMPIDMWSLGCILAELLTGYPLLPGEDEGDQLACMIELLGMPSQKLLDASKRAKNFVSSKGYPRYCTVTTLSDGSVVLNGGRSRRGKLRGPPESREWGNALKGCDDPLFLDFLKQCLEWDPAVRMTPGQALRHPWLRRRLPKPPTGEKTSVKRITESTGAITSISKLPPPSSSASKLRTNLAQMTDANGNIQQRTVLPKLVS

22Rv1 cells = assay: Migration assay (transwell); format: cell-based, human; conditions: for Cell migration (cell number): replicates
DU145 cells [2] = assay: Migration assay (transwell); format: cell-based, human; conditions: replicates

## CCN1CCN(C(=O)c2ccc(Nc3ncc(F)c(-c4ccc5nc(N(C)C)sc5c4)n3)nc2)CC1 [YK-2-69]
DU145 cells [1]; 0.0049 uM
  Relative proliferation rate (%) mean: 5.845%
  Relative proliferation rate (%): 5.804% and 4.647% and 7.084%
  optical density: 0.99 and 0.985 and 1.01
DU145 cells [1]; 0.078 uM
  Relative proliferation rate (%) mean: 13.2988%
  Relative proliferation rate (%): 13.2255% and 9.1% and 17.5713%
  optical density: 0.912 and 0.939 and 0.896
DU145 cells [1]; 0.3125 uM
  Relative proliferation rate (%) mean: 23.3091%
  Relative proliferation rate (%): 23.3111% and 19.8451% and 26.7709%
  optical density: 0.806 and 0.828 and 0.796
DU145 cells [1]; 1.25 uM
  Relative proliferation rate (%) mean: 41.9044%
  Relative proliferation rate (%): 41.8649% and 39.6902% and 44.1582%
  optical density: 0.611 and 0.623 and 0.607
DU145 cells [1]; 5 uM
  Relative proliferation rate (%) mean: 55.1717%
  Relative proliferation rate (%): 55.1855% and 52.3717% and 57.9577%
  optical density: 0.471 and 0.492 and 0.457
DU145 cells [1]; 20 uM
  Relative proliferation rate (%) mean: 69.2763%
  Relative proliferation rate (%): 69.3625% and 65.0532% and 73.4131%
  optical density: 0.322 and 0.361 and 0.289
DU145 cells [1]; 80 uM
  Relative proliferation rate (%) mean: 80.2708%
  Relative proliferation rate (%): 80.3045% and 75.4114% and 85.0966%
  optical density: 0.207 and 0.254 and 0.162
DU145 cells [1]; DU145 cells
  inhibitory activity against proliferation (in words): potent inhibitory activity
DU145 cells [1]; Homo sapiens, DU-145, read-out: IC50 against proliferation
  IC50: 3.3 µM
PC-3 cells; Homo sapiens, PC-3, read-out: IC50 against proliferation
  IC50: 1070 nM
PC-3 cells; 0.0049 uM
  Relative proliferation rate (%) mean: 6.648%
  Relative proliferation rate (%): 6.621% and 4.33% and 8.993%
  optical density: 0.945 and 0.95 and 0.931
PC-3 cells; 0.078 uM
  Relative proliferation rate (%) mean: 18.3188%
  Relative proliferation rate (%): 15.5138% and 18.3283% and 21.1144%
  optical density: 0.855 and 0.811 and 0.807
PC-3 cells; 0.3125 uM
  Relative proliferation rate (%) mean: 33.3383%
  Relative proliferation rate (%): 28.6561% and 33.3333% and 38.0254%
  optical density: 0.722 and 0.662 and 0.634
PC-3 cells; 1.25 uM
  Relative proliferation rate (%) mean: 54.3687%
  Relative proliferation rate (%): 47.8261% and 54.3807% and 60.8993%
  optical density: 0.528 and 0.453 and 0.4
PC-3 cells; 5 uM
  Relative proliferation rate (%) mean: 70.2315%
  Relative proliferation rate (%): 66.7984% and 70.1913% and 73.7048%
  optical density: 0.336 and 0.296 and 0.269
PC-3 cells; 20 uM
  Relative proliferation rate (%) mean: 81.0679%
  Relative proliferation rate (%): 78.6561% and 81.0675% and 83.48%
  optical density: 0.216 and 0.188 and 0.169
PC-3 cells; 80 uM
  Relative proliferation rate (%) mean: 88.776%
  Relative proliferation rate (%): 88.7352% and 82.578% and 95.0147%
  optical density: 0.114 and 0.173 and 0.051
PC-3 cells; PC-3 cells
  inhibitory activity against proliferation (in words): potent inhibitory activity
DYRK2; 0.00228624 µM, duplicates, read-out: % Inhibition DYRK2
  inhibition at 0.00228624 µM: 26.1%
DYRK2; 0.00685871 µM, duplicates, read-out: % Inhibition DYRK2
  inhibition at 0.00685871 µM: 53%
DYRK2; 0.0205761 µM, duplicates, read-out: % Inhibition DYRK2
  inhibition at 0.0205761 µM: 65.2%
DYRK2; 0.0617284 µM, duplicates, read-out: % Inhibition DYRK2
  inhibition at 0.0617284 µM: 82.1%
DYRK2; 0.185185 µM, duplicates, read-out: % Inhibition DYRK2
  inhibition at 0.185185 µM: 94.1%
DYRK2; 0.555556 µM, duplicates, read-out: % Inhibition DYRK2
  inhibition at 0.555556 µM: 96.8%
DYRK2; 5 µM, duplicates, read-out: % Inhibition DYRK2
  inhibition at 5 µM: 97.8%
DYRK2; read-out: DYRK2 IC50
  IC50: 9 nM
22Rv1 cells; 22Rv1, 0.5 μM
  Cell migration (cell number): 1803 cell number and 1758 cell number and 1920 cell number
22Rv1 cells; 22Rv1, 1 μM
  Cell migration (cell number): 710 cell number and 690 cell number and 736 cell number
22Rv1 cells; 22Rv1, 2 μM
  Cell migration (cell number): 422 cell number and 380 cell number and 416 cell number
22Rv1 cells; 22Rv1 cells, dose-dependent
  migration (in words): remarkably inhibited the migration and invasion
DU145 cells [2]; DU145, 2 μM
  Cell migration (cell number): 3879 cell number and 3920 cell number and 3723 cell number
DU145 cells [2]; DU145, 4 μM
  Cell migration (cell number): 2567 cell number and 2678 cell number and 2788 cell number
DU145 cells [2]; DU145, 8 μM
  Cell migration (cell number): 1578 cell number and 1677 cell number and 1723 cell number
